4 molecules from US20240009223A1, “6-THIO-2'-DEOXYGUANOSINE (6-THIO-DG) RESULTS IN TELOMERASE DEPENDENT TELOMERE DYSFUNCTION AND CELL DEATH IN VARIOUS MODELS OF THERAPY-RESISTANT CANCER CELLS” (The Board of Regents of The University of Texas System, priority 2016, published 2024) can be followed below.

“And” between values parts separate entries of the source, which are not always exact repeats. Identical values can stand only once.

Assay [1] deals with panel of 12 cancer cell lines of 9 different histological origins. In words: Long-term cell growth assay (crystal violet), 12 non-melanoma cancer cell lines. The format is cell-based. The note with it: dose of 25 μM; 9-12 days. The method, then: FIGS. 1A-1B show long-term cell growth assay of 12 non-melanoma cancer cell lines (FIG. 1A) and 12 BRAF-mutant melanoma cell lines (FIG. 1B) that were treated with 6-thio-dG (6dG) or BIBR 1532 (BIBR) at indicated doses for 9 to 12 days.
Treatment of a Variety of Cancer Cell Lines with Telomerase-directed 6-thio-dG Impairs Cell Viability. […] To further confirm the inhibitory effect of 6-thio-dG, a panel of 12 cancer cell lines of 9 different histological origins was treated with 6-thio-dG for 9-12 days. As the control for 6-thio-dG, a known telomerase inhibitor, BIBR 1532, was also included. In most cases, these cancer cell lines were sensitive to 6-thio-dG administered at a dose of 2.5 μM and higher (FIG. 1A).

The next assay has as its system PEO1. In words: Relative cell viability, PEO1. The assay is classed as cell-based, human. The note with it: 5 days. The method, then:
(§1) Additionally, the efficacy of 6-thio-dG was tested using two human ovarian cancer cell lines, PEO4 and PEO1-CR. PEO4 is a derivative line of BRCA1/2-mutant PEO1 that regains homologous recombination by BRCA reversion mutation. […] Importantly, all three cell lines were sensitive to 6-thio-dG after the 5-day treatment (FIGS. 14H-14J).

A further assay deals with PEO4. In words: Relative cell viability, PEO4. The note with it: 5 days. The format is cell-based, human. As to the method:
as §1

In a further assay the test system is PEO1-CR. In words: Relative cell viability, PEO1-CR. The assay is classed as cell-based, human. The note with it: 5 days. As to the method: as §1
The next assay relates to WO-24-2. In words: Relative cell viability, patient-derived culture WO-24-2. The format is cell-based, human. The note with it: carboplatin at indicated doses, 5 days. The source says:
A short-term primary culture, WO-24-2 from a therapy-resistant human ovarian cancer, was also established. The WO-24-2 tumor was resected from a patient with high grade serous ovarian cancer who underwent an interval debulking surgery after receiving neoadjuvant chemotherapy with platinum/taxane and subsequently progressed on platinum chemotherapy. Immunofluorescence staining of PAX8 and cytokeratin 7 confirmed that these were indeed human ovarian cancer cells (FIG. 14K) (George et al., 2017).

Assay [2] has as its system metastatic melanoma (BRAF mutation). In words: Targeted therapy patients' clinical response. The assay is classed as in vivo, human. The note with it: one patient per row; vemurafenib 1920 mg daily. The method, then: (§2) Ethics Statement. All clinical data and patient samples were collected following approval by the Massachusetts General Hospital institutional review board and the Hospital of the University of Pennsylvania institutional review board. In all cases informed consent was obtained. All animal studies were conducted in accordance with the Guide for the Care and Use of Laboratory Animals of the NIH. Mice were maintained according to the guidelines of the Wistar Institutional Animal Care and Use Committee (IACUC), and study designs were approved by the Wistar IACUC.
In addition to treatment-naïve human melanoma, paired pre-, on- and post-treatment tumor biopsies derived from patients with metastatic melanoma who were treated with targeted therapies or immune checkpoint blockade therapies were analyzed.

The next assay deals with metastatic melanoma. In words: Immune checkpoint therapy patient's clinical response. The format is in vivo, human. The note with it: patient #39, previously progressed on other therapies. The method, then:
as §2
RNA-seq of 31 paired pre-, on- and/or post-treatment tumor biopsies derived from 12 patients who were treated with various immune checkpoint blockade therapies were carried out. […] The ssGSEA identified that “packaging of telomere ends” and “telomere maintenance” were highly enriched in 7 out 12 patients' on- or post-treatment tumor biopsies (FIG. 11). […] Prior to pembrolizumab, this patient progressed on vemurafenib, IL-2, ipilimumab, and dabrafenib plus trametinib. It was observed that “telomere maintenance” and “packaging of telomere ends” were highly enriched in this patient's on-treatment tumor biopsy compared to the paired pre-treatment tumor biopsy (FIG. 9F and Table 8). 00449194) 96

With `C/C(=C\C(=O)Nc1ccccc1C(=O)O)c1ccc2ccccc2c1` [BIBR 1532, reference compound], in assay [1], the anti-proliferative activity result was “observed in a subset of 12 cancer cell lines”.
Consider `N.N.O=C([O-])C1(C(=O)[O-])CCC1.[Pt+2]` [carboplatin, reference compound], for which the “sensitivity (relative cell viability)” value in the assay on PEO1 is “sensitive”; in the assay on PEO4, “intrinsically resistant”; in the assay on PEO1-CR, “acquired resistance”; in the assay with WO-24-2, “resistant”.
Consider `CCCS(=O)(=O)Nc1ccc(F)c(C(=O)c2c[nH]c3ncc(-c4ccc(Cl)cc4)cc23)c1F` [vemurafenib], for which, in assay [2], the “Response (value in parentheses)” value was −16.5% and −51.2% and −53% and −24.9% and −81.5% and −60.5% and −56% and −27%; the “Time To Progression” value was 6 months and 5 months and 2 months and 4.3 months and PD at 9 months and 13.4 months and 8.5 months and 3.5 months and 6.5 months.
For pembrolizumab: anti-PD-1 drug, in the assay on metastatic melanoma, the best response result is “progressive disease”.
